In US10703723B2 (Truly Translational Sweden AB, priority 2017, dated 2020):
Read-outs that look alike come from different tables or passages of the source.

Assays:
[1] = appearance of test formulations / solubility over time in PBC buffer (pH 7.4); format: physicochemical; settings: 0.5% CMC in phosphate buffer (pH 7.4)
[2] = solubility in de-ionized water at rt after 24 h; settings: thermodynamic from solid
Protocol: The produced examples were characterized regarding identity, crystal modification, thermal properties, melting point, solubility in water, purity, and hygroscopicity using the following methods:
The flow rate was 1.0 mL/min, injection volume 5 μL and detection wavelengths 358 nm (for assay) and 260 nm (for chromatographic purity). Quantitation was performed using external standard methodology. The assay method has been validated with respect to selectivity, repeatability and linearity.

[3] = in vivo; settings: rat, po, 40 mg/kg
Protocol: In accordance with Swedish legislations for preclinical in vivo studies in rodents and following evaluation and approval of the experimental procedures the local ethical committee (M388-12), following acclimatization to the housing conditions for a minimum of 7 days after arrival, male Wistar (Hannover) rats (Taconic, Denmark), average weight 300 g; average age 8-10 weeks, were treated with test items (see table 1); 12-16 h prior to dosing all food except for an amount equivalent to a half day consumption was removed. […] The rats were conscious during sample collection and the blood was taken from the sub-lingual vein. Blood samples were collected from each rat over a period of up to 24 h. At each time point two aliquots of 50 μL each was added to a vial containing 150 μL of sterile water. The samples were mixed immediately and stored in −18° C. until preparation for bioanalysis commenced. All formulations were prepared on the same day that dosing took place. The body weight of the rat was recorded before dosing. The weight of the syringe was recorded before and after administration to allow calculation of the actual amount of test sample delivered. Actual dose administered was used during the evaluation of the data.
Samples and standards were injected by a HTC PAL from CTC analytics into an LC system from Shimadzu consisting of a high pressure gradient system of two LC-10 AD pumps controlled by a SCL-10A controller from Shimadzu. The samples were separated using reverse-phase chromatography with gradient elution at a flow rate of 0.8 mL/min. Mobile phases were A:94.9/5/0.1 water/acetonitrile/formic acid and B:5/94.9/0.1 water/acetonitrile/formic acid. Gradient started at 0% B and increased linearly to 100% B in 4 minutes, 100% B was kept for 0.5 minutes and then the system returned to 0% B in 0.1 minutes. The system was equilibrated for 1.4 minutes until the total run time of 6 minutes. The eluent was analyzed by a Quattro Ultima from Micromass equipped with an electrospray ion source. Data was collected and calibrations were calculated by MassLynx 4.0 software. […] The eluent was ionized by negative ion electrospray and the mrm transition from 397 to 197 m/z was monitored.
The diluted blood sample (50 μL blood, 150 μL water) was thawed and mixed. 400 μL of acetonitrile, to precipitate the protein was added and mixed again. The sample was centrifuged at 5000 g for 5 minutes. 100 μL of the supernatant was transferred to a 300 μL glass vial and 100 μL of water was added to reduce the acetonitrile concentration.
The concentration of the standard curve was in the range from 5 nM to 15625 nM. Samples with analyte concentrations above the upper limit of quantification were diluted with matrix to reach within the assay range. A non-compartmental analysis (NCA) was performed using the Phoenix WinNonLin analysis tool.

[4] = RA, 24 weeks, cited from earlier work
[5] = cited from earlier work; for time to steady state levels: sulfasalazine therapy
[6] = ambient temperature; cited from earlier work

SMILES	Appearance of test formulations t = 0 h [1]	Appearance of test formulations t = 4 h [1]	solubility at 24 h [2]	Ratio SP to SSZ for AUC0-4 h (h*nmol/L) [3]	Ratio SP to SSZ for Cmax (nmol/L) [3]	also measured
CCN(C)C(=O)COC(=O)c1cc(/N=N/c2ccc(S(=O)(=O)Nc3ccccn3)cc2)ccc1O [Compound 4a, 2-(ethyl(methyl)amino)-2-oxoethyl-2-hydroxy-5-((4-(N-(pyridine-2-yl)sulfamoyl)phenyl)diazenyl) benzoate]	clear solution	clear solution	> 1000 µg/mL			
CNC(=O)COC(=O)c1cc(/N=N/c2ccc(S(=O)(=O)Nc3ccccn3)cc2)ccc1O [Compound 2a, 2-(methylamino)-2-oxoethyl-2-hydroxy-5-((4-(N-(pyridine-2-yl)sulfamoyl)phenyl)diazenyl) benzoate]	clear solution	clear solution	> 5000 µg/mL			
CN(C)C(=O)COC(=O)c1cc(/N=N/c2ccc(S(=O)(=O)Nc3ccccn3)cc2)ccc1O [Compound 3a, 2-(dimethylamino)-2-oxoethyl-2-hydroxy-5-((4-(N-(pyridine-2-yl)sulfamoyl)phenyl)diazenyl) benzoate]	clear solution	milky	> 500 µg/mL			
CC(C)NC(=O)COC(=O)c1cc(N=Nc2ccc(S(=O)(=O)Nc3ccccn3)cc2)ccc1O [Compound 2d, 2-(isopropylamino)-2-oxoethyl-2-hydroxy-5-((4-(N-(pyridine-2-yl)sulfamoyl)phenyl)diazenyl) benzoate]	clear solution	clear solution		2:1	2:1	
O=C(OCC(=O)N1CCOCC1)c1cc(/N=N/c2ccc(S(=O)(=O)Nc3ccccn3)cc2)ccc1O [Compound 1a, 2-morpholino-2-oxoethyl-2-hydroxy-5-((4-(N-(pyridine-2-yl)sulfamoyl)phenyl)diazenyl) benzoate]	clear solution	clear solution	> 5000 µg/mL			
O=C(COC(=O)c1cc(N=Nc2ccc(S(=O)(=O)Nc3ccccn3)cc2)ccc1O)NCC1CC1 [Compound 2f, 2-((cyclopropylmethyl)amino)-2-oxoethyl-2-hydroxy-5-((4-(N-(pyridine-2-yl)sulfamoyl)phenyl)diazenyl) benzoate]	clear solution	milky		6:1	2:1	
O=C(O)c1cc(/N=N/c2ccc(S(=O)(=O)Nc3ccccn3)cc2)ccc1O [Sulfasalazine, 2-hydroxy-5-[2-[4-[(2-pyridinylamino)sulfonyl]phenyl]diazenyl]-benzoic acid]						overall clinical status ([4]; fast acetylators, 3 g/day): marked improvement; overall clinical status ([4]; slow acetylators, half of the SSZ dose (1.5 g/d)): remained unchanged; time to steady state levels of sulfasalazine ([5]; multiple dosing): ≤ 24 h; Tmax ([3]; male, Wistar (Hannover)): 0.25 h; Tmax for SP ([3]; male, Wistar (Hannover)): 4 h; water solubility [6]: less than 0.05 mg/mL
Nc1ccc(S(=O)(=O)Nc2ccccn2)cc1 [sulfapyridine]						elimination half-life ([5]; fast acetylators): 5.5 h; total plasma clearance ([5]; fast acetylators): 135.3 mL/min; time after which metabolite can be detected in the plasma ([5]; following oral administration of sulfasalazine): about 10 hours; plasma protein binding ([5]; no difference between fast and slow acetylators): ca. 50 °; elimination half-life ([5]; slow acetylators): 15.3 h; total plasma clearance ([5]; slow acetylators): 36.9 mL/min; time to steady state levels [5]: 72 h
CCN(CC)C(=O)COC(=O)c1cc(N=Nc2ccc(S(=O)(=O)Nc3ccccn3)cc2)ccc1O [Compound 3b, 2-(diethylamino)-2-oxoethyl-2-hydroxy-5-((4-(N-(pyridine-2-yl)sulfamoyl)phenyl)diazenyl) benzoate]	clear solution	clear solution		8:1	5:1	
CC(=O)Nc1ccc(S(=O)(=O)Nc2ccccn2)cc1 [acetylated sulfapyridine]						time to steady state levels [5]: 72 h
COCCNC(=O)COC(=O)c1cc(N=Nc2ccc(S(=O)(=O)Nc3ccccn3)cc2)ccc1O [Compound 2h, 2-(2-methoxylethyl)amino)-2-oxoethyl-2-hydroxy-5-((4-(N-(pyridine-2-yl)sulfamoyl)phenyl)diazenyl) benzoate]	clear solution	clear solution		8:1	6:1	
